Measured values taken from PubChem BioAssay AID256 (DTP/NCI, 2004).
Several values for one entry are separate records, joined by “and”; a condition that tells them apart may be missing. Identical values can stand only once. Toxic doses and inconclusive results are not listed. The calls were made as follows: active = survival T/C of 150% or more; inactive = T/C below 125% in these data.

System: CD2F1 mice, L1210 leukemia ip, survival T/C
Assay: NCI In Vivo Anticancer Drug Screen. Data for tumor model L1210 Leukemia (intraperitoneal) in CD2F1 (CDF1) mice
Conditions: higher = longer survival
Method in brief: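 Compound-dosed mice with transplantable tumor versus matched vehicle controls; endpoint ratio T/C reported.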

Measured: T/C

Cc1[nH]c(=O)[nH]c(=O)c1N(CCF)CCCl
inactive: endpoint: mean survival time, dose: 1.8 mg/kg/injection, schedule: Q01DX009 (ip), vehicle: saline 98 % of control | endpoint: mean survival time, dose: 3.0 mg/kg/injection, schedule: Q01DX009 (ip), vehicle: saline 102 % of control | endpoint: mean survival time, dose: 5.0 mg/kg/injection, schedule: Q01DX009 (ip), vehicle: saline 104 % of control | endpoint: mean survival time, dose: 8.0 mg/kg/injection, schedule: Q01DX001 (ip), vehicle: acid diluted with saline 95 % of control and 102 % of control | endpoint: mean survival time, dose: 8.0 mg/kg/injection, schedule: Q01DX001 (ip), vehicle: saline 98 % of control | endpoint: mean survival time, dose: 8.4 mg/kg/injection, schedule: Q01DX009 (ip), vehicle: saline 106 % of control | endpoint: mean survival time, dose: 8.4 mg/kg/injection, schedule: Q04DX003 (ip), vehicle: saline 108 % of control | endpoint: mean survival time, dose: 14.0 mg/kg/injection, schedule: Q01DX009 (ip), vehicle: saline 113 % of control | endpoint: mean survival time, dose: 14.0 mg/kg/injection, schedule: Q04DX003 (ip), vehicle: saline 105 % of control | endpoint: mean survival time, dose: 16.0 mg/kg/injection, schedule: Q01DX001 (ip), vehicle: acid diluted with saline 97 % of control and 100 % of control | endpoint: mean survival time, dose: 16.0 mg/kg/injection, schedule: Q01DX001 (ip), vehicle: saline 94 % of control and 100 % of control | endpoint: mean survival time, dose: 23.0 mg/kg/injection, schedule: Q01DX001 (ip), vehicle: saline 117 % of control | endpoint: mean survival time, dose: 23.0 mg/kg/injection, schedule: Q01DX009 (ip), vehicle: saline 107 % of control | endpoint: mean survival time, dose: 23.0 mg/kg/injection, schedule: Q04DX003 (ip), vehicle: saline 114 % of control | endpoint: mean survival time, dose: 32.0 mg/kg/injection, schedule: Q01DX001 (ip), vehicle: acid diluted with saline 96 % of control and 102 % of control | endpoint: mean survival time, dose: 32.0 mg/kg/injection, schedule: Q01DX001 (ip), vehicle: saline 105 % of control and 109 % of control | endpoint: mean survival time, dose: 39.0 mg/kg/injection, schedule: Q01DX001 (ip), vehicle: saline 117 % of control | endpoint: mean survival time, dose: 64.0 mg/kg/injection, schedule: Q01DX001 (ip), vehicle: acid diluted with saline 107 % of control and 110 % of control | endpoint: mean survival time, dose: 64.0 mg/kg/injection, schedule: Q01DX001 (ip), vehicle: saline 115 % of control and 120 % of control | endpoint: mean survival time, dose: 65.0 mg/kg/injection, schedule: Q01DX001 (ip), vehicle: saline 123 % of control | endpoint: median survival time, dose: 0.5 mg/kg/injection, schedule: Q03HX024 (ip), vehicle: acid diluted with saline 107 % of control | endpoint: median survival time, dose: 1.0 mg/kg/injection, schedule: Q03HX016 (ip), vehicle: acid diluted with saline 98 % of control | endpoint: median survival time, dose: 1.0 mg/kg/injection, schedule: Q03HX024 (ip), vehicle: acid diluted with saline 105 % of control | endpoint: median survival time, dose: 2.0 mg/kg/injection, schedule: Q01DX009 (ip), vehicle: acid diluted with saline 107 % of control | endpoint: median survival time, dose: 2.0 mg/kg/injection, schedule: Q03HX008 (ip), vehicle: acid diluted with saline 96 % of control | endpoint: median survival time, dose: 2.0 mg/kg/injection, schedule: Q03HX016 (ip), vehicle: acid diluted with saline 100 % of control | endpoint: median survival time, dose: 2.0 mg/kg/injection, schedule: Q03HX024 (ip), vehicle: acid diluted with saline 108 % of control | endpoint: median survival time, dose: 2.0 mg/kg/injection, schedule: Q03HX024 (oral), vehicle: acid diluted with saline 100 % of control | endpoint: median survival time, dose: 4.0 mg/kg/injection, schedule: Q01DX009 (ip), vehicle: acid diluted with saline 117 % of control | endpoint: median survival time, dose: 4.0 mg/kg/injection, schedule: Q01DX009 (sc), vehicle: acid diluted with saline 104 % of control | endpoint: median survival time, dose: 4.0 mg/kg/injection, schedule: Q03HX008 (ip), vehicle: acid diluted with saline 96 % of control | endpoint: median survival time, dose: 4.0 mg/kg/injection, schedule: Q03HX016 (ip), vehicle: acid diluted with saline 111 % of control | endpoint: median survival time, dose: 4.0 mg/kg/injection, schedule: Q03HX024 (ip), vehicle: acid diluted with saline 105 % of control | endpoint: median survival time, dose: 4.0 mg/kg/injection, schedule: Q03HX024 (oral), vehicle: acid diluted with saline 100 % of control | endpoint: median survival time, dose: 4.0 mg/kg/injection, schedule: Q04DX003 (ip), vehicle: acid diluted with saline 96 % of control | endpoint: median survival time, dose: 8.0 mg/kg/injection, schedule: Q01DX009 (ip), vehicle: acid diluted with saline 108 % of control | endpoint: median survival time, dose: 8.0 mg/kg/injection, schedule: Q01DX009 (oral), vehicle: acid diluted with saline 100 % of control | endpoint: median survival time, dose: 8.0 mg/kg/injection, schedule: Q01DX009 (sc), vehicle: acid diluted with saline 100 % of control | endpoint: median survival time, dose: 8.0 mg/kg/injection, schedule: Q03HX008 (ip), vehicle: acid diluted with saline 100 % of control | endpoint: median survival time, dose: 8.0 mg/kg/injection, schedule: Q03HX008 (oral), vehicle: acid diluted with saline 106 % of control | endpoint: median survival time, dose: 8.0 mg/kg/injection, schedule: Q03HX016 (ip), vehicle: acid diluted with saline 97 % of control | endpoint: median survival time, dose: 8.0 mg/kg/injection, schedule: Q03HX016 (oral), vehicle: acid diluted with saline 100 % of control | endpoint: median survival time, dose: 8.0 mg/kg/injection, schedule: Q03HX024 (ip), vehicle: acid diluted with saline 108 % of control | endpoint: median survival time, dose: 8.0 mg/kg/injection, schedule: Q03HX024 (oral), vehicle: acid diluted with saline 100 % of control | endpoint: median survival time, dose: 8.0 mg/kg/injection, schedule: Q04DX003 (ip), vehicle: acid diluted with saline 100 % of control | endpoint: median survival time, dose: 8.0 mg/kg/injection, schedule: Q08DX002 (ip), vehicle: acid diluted with saline 100 % of control | endpoint: median survival time, dose: 16.0 mg/kg/injection, schedule: Q01DX001 (ip), vehicle: acid diluted with saline 98 % of control | endpoint: median survival time, dose: 16.0 mg/kg/injection, schedule: Q01DX001 (sc), vehicle: acid diluted with saline 98 % of control | endpoint: median survival time, dose: 16.0 mg/kg/injection, schedule: Q01DX009 (ip), vehicle: acid diluted with saline 120 % of control | endpoint: median survival time, dose: 16.0 mg/kg/injection, schedule: Q01DX009 (oral), vehicle: acid diluted with saline 106 % of control | endpoint: median survival time, dose: 16.0 mg/kg/injection, schedule: Q01DX009 (sc), vehicle: acid diluted with saline 104 % of control | endpoint: median survival time, dose: 16.0 mg/kg/injection, schedule: Q03HX008 (ip), vehicle: acid diluted with saline 96 % of control | endpoint: median survival time, dose: 16.0 mg/kg/injection, schedule: Q03HX008 (oral), vehicle: acid diluted with saline 112 % of control | endpoint: median survival time, dose: 16.0 mg/kg/injection, schedule: Q03HX016 (ip), vehicle: acid diluted with saline 102 % of control | endpoint: median survival time, dose: 16.0 mg/kg/injection, schedule: Q03HX016 (oral), vehicle: acid diluted with saline 112 % of control | endpoint: median survival time, dose: 16.0 mg/kg/injection, schedule: Q03HX024 (oral), vehicle: acid diluted with saline 112 % of control | endpoint: median survival time, dose: 16.0 mg/kg/injection, schedule: Q04DX003 (ip), vehicle: acid diluted with saline 108 % of control | endpoint: median survival time, dose: 16.0 mg/kg/injection, schedule: Q04DX003 (oral), vehicle: acid diluted with saline 106 % of control | endpoint: median survival time, dose: 16.0 mg/kg/injection, schedule: Q08DX002 (ip), vehicle: acid diluted with saline 105 % of control | endpoint: median survival time, dose: 32.0 mg/kg/injection, schedule: Q01DX001 (ip), vehicle: acid diluted with saline 98 % of control | endpoint: median survival time, dose: 32.0 mg/kg/injection, schedule: Q01DX001 (sc), vehicle: acid diluted with saline 100 % of control | endpoint: median survival time, dose: 32.0 mg/kg/injection, schedule: Q01DX009 (oral), vehicle: acid diluted with saline 112 % of control | endpoint: median survival time, dose: 32.0 mg/kg/injection, schedule: Q03HX008 (ip), vehicle: acid diluted with saline 104 % of control | endpoint: median survival time, dose: 32.0 mg/kg/injection, schedule: Q04DX003 (ip), vehicle: acid diluted with saline 108 % of control | endpoint: median survival time, dose: 32.0 mg/kg/injection, schedule: Q04DX003 (oral), vehicle: acid diluted with saline 112 % of control | endpoint: median survival time, dose: 32.0 mg/kg/injection, schedule: Q08DX002 (ip), vehicle: acid diluted with saline 100 % of control | endpoint: median survival time, dose: 64.0 mg/kg/injection, schedule: Q01DX001 (ip), vehicle: acid diluted with saline 98 % of control | endpoint: median survival time, dose: 64.0 mg/kg/injection, schedule: Q01DX001 (oral), vehicle: acid diluted with saline 112 % of control | endpoint: median survival time, dose: 64.0 mg/kg/injection, schedule: Q01DX001 (sc), vehicle: acid diluted with saline 100 % of control | endpoint: median survival time, dose: 64.0 mg/kg/injection, schedule: Q01DX009 (oral), vehicle: acid diluted with saline 112 % of control | endpoint: median survival time, dose: 64.0 mg/kg/injection, schedule: Q04DX003 (ip), vehicle: acid diluted with saline 90 % of control | endpoint: median survival time, dose: 64.0 mg/kg/injection, schedule: Q04DX003 (oral), vehicle: acid diluted with saline 112 % of control | endpoint: median survival time, dose: 64.0 mg/kg/injection, schedule: Q08DX002 (ip), vehicle: acid diluted with saline 98 % of control | endpoint: median survival time, dose: 64.0 mg/kg/injection, schedule: Q08DX002 (oral), vehicle: acid diluted with saline 112 % of control | endpoint: median survival time, dose: 128.0 mg/kg/injection, schedule: Q01DX001 (oral), vehicle: acid diluted with saline 100 % of control | endpoint: median survival time, dose: 128.0 mg/kg/injection, schedule: Q01DX001 (sc), vehicle: acid diluted with saline 100 % of control | endpoint: median survival time, dose: 128.0 mg/kg/injection, schedule: Q04DX003 (oral), vehicle: acid diluted with saline 112 % of control | endpoint: median survival time, dose: 128.0 mg/kg/injection, schedule: Q08DX002 (oral), vehicle: acid diluted with saline 106 % of control | endpoint: median survival time, dose: 256.0 mg/kg/injection, schedule: Q01DX001 (oral), vehicle: acid diluted with saline 100 % of control | endpoint: median survival time, dose: 256.0 mg/kg/injection, schedule: Q01DX001 (sc), vehicle: acid diluted with saline 105 % of control | endpoint: median survival time, dose: 256.0 mg/kg/injection, schedule: Q04DX003 (oral), vehicle: acid diluted with saline 112 % of control | endpoint: median survival time, dose: 256.0 mg/kg/injection, schedule: Q08DX002 (oral), vehicle: acid diluted with saline 100 % of control | endpoint: median survival time, dose: 512.0 mg/kg/injection, schedule: Q01DX001 (oral), vehicle: acid diluted with saline 112 % of control
